Experimental findings from article PMC4507174, “Sulfonoquinovosyl diacylglyceride selectively targets acute lymphoblastic leukemia cells and exerts potent anti-leukemic effects in vivo” (Scientific Reports, 2015) are described below.

Assay [1] has as its target T1, human DNA topoisomerase I (Homo sapiens, UniProt P11387).
T1 construct: gene TOP1
T1 sequence (P11387 2-765): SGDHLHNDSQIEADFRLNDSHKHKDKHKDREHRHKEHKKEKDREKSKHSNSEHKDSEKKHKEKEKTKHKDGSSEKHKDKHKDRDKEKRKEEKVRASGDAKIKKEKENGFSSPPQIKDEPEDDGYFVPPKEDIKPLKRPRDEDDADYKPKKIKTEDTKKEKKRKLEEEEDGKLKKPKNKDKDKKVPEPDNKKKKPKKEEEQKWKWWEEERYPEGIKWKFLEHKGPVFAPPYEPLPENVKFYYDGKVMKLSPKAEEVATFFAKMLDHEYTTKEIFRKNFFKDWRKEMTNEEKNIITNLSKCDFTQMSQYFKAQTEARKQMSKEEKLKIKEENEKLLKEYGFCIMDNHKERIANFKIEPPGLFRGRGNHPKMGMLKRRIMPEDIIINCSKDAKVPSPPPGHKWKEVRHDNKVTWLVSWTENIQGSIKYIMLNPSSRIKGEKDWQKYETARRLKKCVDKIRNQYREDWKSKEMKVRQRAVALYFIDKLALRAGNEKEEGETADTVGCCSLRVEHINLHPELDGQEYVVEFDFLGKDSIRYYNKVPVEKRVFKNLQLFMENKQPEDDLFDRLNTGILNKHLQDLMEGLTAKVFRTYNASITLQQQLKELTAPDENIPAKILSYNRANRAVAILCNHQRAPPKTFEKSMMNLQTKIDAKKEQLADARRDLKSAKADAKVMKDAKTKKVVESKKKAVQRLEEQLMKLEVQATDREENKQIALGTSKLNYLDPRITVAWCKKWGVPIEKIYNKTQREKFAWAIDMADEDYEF
The assay can be described thus: oligonucleotide cleavage assay:[…] BA added before […] CPT. Format: biochemical.

The target in assay [2] is T1, human DNA topoisomerase I. Put plainly: DNA relaxation assay with enzyme preincubation; also EMSA and cleavage assays. Format: biochemical.

Take `C=C(C)[C@@H]1CC[C@]2(C(=O)O)CC[C@]3(C)[C@H](CC[C@@H]4[C@@]5(C)CC[C@H](O)C(C)(C)[C@@H]5CC[C@]43C)[C@@H]12` [Betulinic acid]: the “oligonucleotide cleavage assay: 20 uM BA added before 20 uM CPT” value in assay [1] was “SQDG/BA abrogates CPT mediated topo I-oligo covalent complex formation”.

`CCCCCCCCCCCCCCCC(=O)OC[C@H](CO[C@H]1O[C@H](CS(=O)(=O)O)[C@@H](O)[C@H](O)[C@H]1O)OC(=O)CCCCCCCCCCCCCCC` [SQDG] displayed an IC100 in assay [2] of 1.5 µM.
